Results as given in patent publication US7989393B2, “Methods of controlling algae with thaxtomin and thaxtomin compositions” (priority 2007, dated 2011).

What was measured:
algae (mix) = test: Water and algae mix in a test tube; format: cell-based, green algae; conditions: 10 mMol (2,840 ppm) in 2 ml water and algae mix
Method: Thaxtomin was added to water and algae in a test tube.
Metolachlor (2-chloro-N-(6-ethyl-o-tolyl)-N-[(1RS)-2-methoxy-1-methylethyl]acetamide) is a known pre-emergent herbicide commonly used to control annual grasses and some broadleaves such as Eastern black nightshade and pigweeds.

Batrachospermum spp. = test: Bioactivity of purified thaxtomin verse CuSO4, algae growth bioassay; format: cell-based; set-up: key: ++ = visible death; + = growth inhibition; − = no visible growth inhibition; conditions: 2 ppm, two weeks
Method: (§1) Purified thaxtomin was used for a bioassay test and its efficacy evaluated and compared with copper sulphate, an active ingredient for many copper based algaecides. The bioassay was run for two weeks and inhibition of algae growth was evaluated.

Oedogonium spp. = test: as above; format: cell-based; set-up: key: ++ = visible death; + = growth inhibition; − = no visible growth inhibition; conditions: 2 ppm, two weeks
Method: as §1

Oscillatoria spp. = test: as above; format: cell-based; set-up: key: ++ = visible death; + = growth inhibition; − = no visible growth inhibition; conditions: 2 ppm, two weeks
Method: as §1

Rhodymenia spp. = test: as above; format: cell-based; set-up: key: ++ = visible death; + = growth inhibition; − = no visible growth inhibition; conditions: 2 ppm, two weeks
Method: as §1

Spirogyra spp. = test: as above; format: cell-based; set-up: key: ++ = visible death; + = growth inhibition; − = no visible growth inhibition; conditions: 2 ppm, two weeks
Method: as §1

the tested algae = test: Purified thaxtomin versus copper sulphate bioassay (text summary of Example 5); format: cell-based; conditions: 2 ppm (commercial recommended rate); two weeks
Method: as §1

For `CCc1cccc(C)c1N(C(=O)CCl)C(C)COC` (racemic) [Metolachlor, 2-chloro-N-(6-ethyl-o-tolyl)-N-[(1RS)-2-methoxy-1-methylethyl]acetamide], the “Results: appearance of water and algae mix” value (algae (mix)) was “did not show any algaestatic and/or algaecidal activity”.

`O=S(=O)([O-])[O-].[Cu+2]` [CuSO4, copper sulphate] was tested, and the “Bioactivity (inhibition of algae growth)” value (Batrachospermum spp.) was “−”, the “Bioactivity (inhibition of algae growth)” value (Oedogonium spp.) was “−” and the “Bioactivity (inhibition of algae growth)” value (Oscillatoria spp.) was “−”. The “Bioactivity (inhibition of algae growth)” value (Rhodymenia spp.) was “−”, the “Bioactivity (inhibition of algae growth)” value (Spirogyra spp.) was “+” and the “efficacy against the tested organisms” value (the tested algae) was “not very effective”.
